Experimental findings from paper PMC12607891, “A broadly conserved fungal chorismate mutase targets the plant shikimate pathway to regulate salicylic acid production and other secondary metabolites” (mBio, 2025) are described below.

The target in one test is T1, AtCM2 (Arabidopsis thaliana, UniProt Q9S7H4).
T1 construct: gene CM2; His-tagged, pET, E. coli BL21, Ni-NTA; cytosolic enzyme
T1 sequence (Q9S7H4 1-265): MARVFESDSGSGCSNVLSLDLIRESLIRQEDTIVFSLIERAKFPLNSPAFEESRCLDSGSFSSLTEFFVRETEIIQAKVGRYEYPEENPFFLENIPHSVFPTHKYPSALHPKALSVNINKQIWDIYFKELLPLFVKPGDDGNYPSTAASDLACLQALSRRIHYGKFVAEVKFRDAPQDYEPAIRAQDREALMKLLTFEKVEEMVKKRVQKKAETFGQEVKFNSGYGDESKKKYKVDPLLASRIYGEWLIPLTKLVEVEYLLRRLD
The test is described as follows: absorbance at […] nm, prephenate converted to phenylpyruvate. The settings on record: chorismate mutase activity assay; conditions as in cited procedure. It counts as biochemical.

For the next test, the target named is T2, AtCM3 (Arabidopsis thaliana, UniProt Q9C544).
T2 construct: gene CM3; His-tagged, pET, E. coli BL21, Ni-NTA
T2 sequence (Q9C544 48-316): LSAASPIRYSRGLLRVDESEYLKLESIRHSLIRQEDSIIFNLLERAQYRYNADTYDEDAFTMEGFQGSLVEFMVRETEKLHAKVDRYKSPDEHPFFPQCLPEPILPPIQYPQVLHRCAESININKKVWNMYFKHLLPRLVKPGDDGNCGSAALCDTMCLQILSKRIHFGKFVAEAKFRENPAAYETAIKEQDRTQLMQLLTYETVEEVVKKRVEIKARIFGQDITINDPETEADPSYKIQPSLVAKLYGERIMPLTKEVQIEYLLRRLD
Described as above. It counts as biochemical. The settings on record: chorismate mutase activity assay; conditions as in cited procedure.

For another test, the target named is T3, Cmu1 (Mycosarcoma maydis, UniProt A0A0D1DWQ2).
T3 construct: His-tagged, pET, E. coli BL21, Ni-NTA
T3 sequence (A0A0D1DWQ2 22-290): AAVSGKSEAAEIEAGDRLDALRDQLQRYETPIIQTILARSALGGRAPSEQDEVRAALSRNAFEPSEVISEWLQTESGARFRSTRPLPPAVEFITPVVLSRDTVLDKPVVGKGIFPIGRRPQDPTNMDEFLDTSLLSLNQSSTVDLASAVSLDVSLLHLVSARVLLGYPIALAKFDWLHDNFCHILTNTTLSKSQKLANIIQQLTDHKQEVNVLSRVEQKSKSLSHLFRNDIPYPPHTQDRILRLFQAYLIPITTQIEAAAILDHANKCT
The test is described as above. It counts as biochemical. The note with it: weak chorismate mutase activity assay; conditions as in cited procedure.

Another test addresses T4, AtCM1 (Arabidopsis thaliana, UniProt P42738).
T4 construct: gene CM1; His-tagged, pET, E. coli BL21, Ni-NTA
T4 sequence (P42738 66-340): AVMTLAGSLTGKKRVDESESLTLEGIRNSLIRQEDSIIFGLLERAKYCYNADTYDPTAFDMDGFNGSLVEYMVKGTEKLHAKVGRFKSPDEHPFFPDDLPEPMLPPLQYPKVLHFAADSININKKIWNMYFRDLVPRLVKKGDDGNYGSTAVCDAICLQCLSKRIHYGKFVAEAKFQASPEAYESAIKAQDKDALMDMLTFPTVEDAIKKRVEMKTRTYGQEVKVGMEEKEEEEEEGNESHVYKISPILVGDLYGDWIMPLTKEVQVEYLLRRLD
Described as above. The class given is biochemical. The settings on record: chorismate mutase activity assay; conditions as in cited procedure.

The next test deals with T5, SsCM1 (Sclerotinia sclerotiorum, UniProt A7F9N9).
T5 construct: gene SS1G_14320; His-tagged, pET, E. coli BL21, Ni-NTA
T5 sequence (A7F9N9 entry or part of it): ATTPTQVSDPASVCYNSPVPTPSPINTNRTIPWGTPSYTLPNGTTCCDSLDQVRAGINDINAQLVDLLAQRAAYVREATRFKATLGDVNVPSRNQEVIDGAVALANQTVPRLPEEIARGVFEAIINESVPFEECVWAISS
The description is as above. The class given is biochemical. The note with it: weak chorismate mutase activity assay; conditions as in cited procedure.

For another test, the target named is T6, SsCM1 ΔSP/cTP1-66 (Sclerotinia sclerotiorum, UniProt A7F9N9).
T6 construct: gene SS1G_14320; residues 1-66 (signal peptide and chloroplast targeting peptide) removed; codon-optimized, pET28a, in E. coli KRX cells
T6 sequence (A7F9N9 entry or part of it, stated change not applied): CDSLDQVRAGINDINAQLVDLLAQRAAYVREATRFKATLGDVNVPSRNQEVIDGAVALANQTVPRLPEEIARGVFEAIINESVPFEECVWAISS
The test is described as follows: HPLC of salicylic acid made in E. coli KRX expressing the protein. The class given is cell-based. The settings on record: endogenous isochorismate of E. coli; 24 °C overnight, IPTG and rhamnose induction; isochorismate pyruvate lyase activity.

In the case of `C=C(O[C@@H]1C=C(C(=O)O)C=C[C@H]1O)C(=O)O` [chorismate], the “absorbance at 320 nm, prephenate converted to phenylpyruvate” value on AtCM2, on AtCM3, on Cmu1, at AtCM1 and at SsCM1 was “all tested chorismate mutases are able to convert chorismate into prephenate” in each case.

With `C=C(O[C@H]1C=CC=C(C(=O)O)[C@@H]1O)C(=O)O` [isochorismate], the “HPLC of salicylic acid made in E. coli KRX expressing the protein” value at SsCM1 ΔSP/cTP1-66 was “SsCM1 possesses some IPL activity when expressed in E. coli”.
